Data reported in patent US7459281B2, “Docetaxel immunoassay” (Saladax Biomedical Inc., priority 2005, dated 2008).

Tests used:
[1] = tested on: docetaxel antibody (antiserum produced in Example 11 with C7 substituted docetaxel acid derivative immunogen); assay: Indirect competitive microtiter plate ELISA, IC50 and cross-reactivity, polyclonal antibodies to C7 substituted docetaxel acid derivative conjugate; format: binding, mouse (BALB/c); conditions: antibody of Example 11, immunogen of Example 9a
Procedure: Ten Female BALB/c mice were immunized i.p. with 100 μg/mouse of docetaxel-immunogen: either docetaxel-BTG as prepared in Example 9a or docetaxel-KLH immunogen as prepared in Example 9b emulsified in Complete Freund's Adjuvant. After the initial injection mice were boosted once after four weeks with 100 μg/mouse of the same immunogen emulsified in Incomplete Freund's Adjuvant. Ten days after the boosts test bleeds from each mouse were obtained by orbital bleed. The anti-serum from the last test bleeds containing docetaxel antibodies from each of the mice were evaluated by the procedures in Examples 14a and 16 to determine their reactivity to docetaxel and their cross reactivity to 10-O-Deacytlbaccatin III and, paclitaxel [Taxol].
Antibodies were screened by Enzyme-Linked Immunosorbent Assay (ELISA) method. This method for screening docetaxel antibodies (produced in Examples 10 and 11) was performed with the microtiter plates that were sensitized with docetaxel-BSA as described in Examples 12 and 13. The antibody screening assay was performed by diluting the antisera containing docetaxel antibodies to 1:100, 1:1,000, 1:10,000 and 1:100,000 in phosphate buffered saline containing 0.1% BSA and 0.01% thimerosal. To each well of docetaxel-BSA sensitized wells (prepared in Examples 12 and 13) 100 μL of diluted antibody was added and incubated for 10 minutes at room temperature with shaking. During this incubation antibody binds to the docetaxel-conjugate in the well. The wells of the plates were washed three times with 0.02 M TRIS, 0.9% NaCl, 0.5% Tween-80 and 0.001% Thimerosal, pH 7.8 to remove any unbound antibody. […] Following the incubation for color development, 50 μL of stop solution (1.5% sodium fluoride in di H2O) was added to each well to stop the color development and after 10 seconds of shaking the absorbance was determined at 650 nm with a 96-well plate reader. The amount of antibody in a well was proportional to the absorbance measured and was expressed as the dilution (titer) resulting in an absorbance of 1.5. Titers were determined by graphing log antibody dilution of the antibody measured (x-axis) vs. absorbance 650 nm (y-axis) and extrapolating the titer at an absorbance of 1.5. The titer determined the concentration (dilution) of antibody used in the indirect competitive Microtiter plate assay described in Examples 15 and 16.
(§1) Docetaxel concentrations were measured by an indirect competitive Enzyme-Linked Immunosorbent Assay (ELISA) method. […]

[2] = tested on: docetaxel monoclonal antibody (produced in Example 11); assay: Indirect competitive microtiter plate ELISA, IC50 and cross-reactivity, monoclonal antibodies to C7 substituted docetaxel acid derivative conjugate; format: binding, mouse (BALB/c); conditions: monoclonal antibody of Example 11, immunogen of Examples 9a & 9b; microtiter plate prepared as in Example 13
Procedure: For monoclonal antibodies starting […] before the fusion, the mice were injected i.p. with 400 μg (3 days before fusion), 200 μg (2 days before fusion), and 200 μg (1 day before fusion) on three successive days with either docetaxel-BTG or docetaxel-KLH (depending on the original immunogen) in PBS. According to the protocol of Coligan et al. spleen cells were isolated from the selected mice and fused with 2×10^7 cells of the myeloma fusion partner cell line (SP2/o) using 50% polyethylene glycol 1500 [Coligan, J. E. et al., eds., Current Protocols in Immunology, 2.5.1-2.5.8, (1992), Wiley & Sons, NY.] […]
Antibodies were screened by Enzyme-Linked Immunosorbent Assay (ELISA) method. […] Following the incubation for color development, 50 μL of stop solution (1.5% sodium fluoride in di H2O) was added to each well to stop the color development and after 10 seconds of shaking the absorbance was determined at 650 nm on a 96-well plate reader. The amount of antibody in a well was proportional to the absorbance measured. Samples with an absorbance of three times background or greater were designated as positive.
as §1

[3] = microtiter plate prepared as in Example 12
[4] = microtiter plate prepared as in Example 13

SMILES | percent cross-reactivity relative to docetaxel (ratio of IC50 for docetaxel to IC50 for analyte) [1, 3] | percent cross-reactivity relative to docetaxel (ratio of IC50 for docetaxel to IC50 for analyte) [1, 4] | percent cross-reactivity relative to docetaxel (ratio of IC50 for docetaxel to IC50 for analyte) [2]
CC(=O)O[C@H]1C(=O)[C@@]2(C)[C@H]([C@H](OC(=O)c3ccccc3)[C@]3(O)C[C@H](OC(=O)[C@H](O)[C@@H](NC(=O)c4ccccc4)c4ccccc4)C(C)=C1C3(C)C)[C@]1(OC(C)=O)CO[C@@H]1C[C@@H]2O [Paclitaxel, paclitaxel] | less than 2% | less than 1% | less than 12%
CC(=O)O[C@@]12CO[C@@H]1CC(O)[C@@]1(C)C(=O)[C@H](O)C3=C(C)C(O)C[C@@](O)([C@@H](OC(=O)c4ccccc4)[C@H]21)C3(C)C (stereo partly drawn) [10-O-Deacytlbaccatin III, 10-O-Deacetylbaccatin III] | less than 0.02% | less than 0.01% | less than 1.0%
